Measured values as given in patent publication EP4813383A1, “USE OF TAFAMIDIS AND PHARMACEUTICALLY ACCEPTABLE SALT THEREOF IN PREVENTION, ALLEVIATION, OR TREATMENT OF DISEASES ASSOCIATED WITH HIF-2a” (Huaya Jiyuan (Shenzhen) Pharmaceutical Co., Ltd., priority 2024, dated 2025).
Where a name gives a salt, the structure may show the parent alone.

Biological target: T1, HIF-2α (Homo sapiens, UniProt Q99814)
T1 construct: 786-O is a renal carcinoma cell line that predominantly expresses HIF-2α and lacks functional HIF-1α; endogenous in cells; host or cells: 786-O cells stably carrying an HRE-driven luciferase reporter
Experiment: Luciferase reporter gene assay (HRE-driven luciferase in stably transfected 786-O cells)
Assay type: cell-based
Source text: Experimental principles: 786-O is a renal carcinoma cell line that predominantly expresses HIF-2α and lacks functional HIF-1α. This characteristic makes 786-O cells an ideal model for studying HIF-2α transcriptional activity and related signaling pathways. In the luciferase reporter gene assay, a 786-O monoclonal cell line that stably expresses hypoxia response element (HRE)-driven luciferase (Luc) activity is obtained through puromycin selection. The HIF-2α agonist promotes dimerization of HIF-2α and HIF-β, and activates an HRE promoter. By measuring fluorescence intensity, luciferase activity can be determined, thereby assessing the ability of the HIF-2α agonist to promote transcription.
Experimental method: A total of 6000 stably transfected 786-O cells stably containing HRE and Luc sequences are seeded in each well of a 96-well plate, and 100 µL of RPMI-1640 culture medium containing 10% fetal bovine serum is added to each well. After 24 hours, a compound at a corresponding concentration is added to each well. A blank group is set as a control. Only a DMSO solvent is added in the well of the blank group. For initial compound screening, both tafamidis and tafamidis meglumine are tested at two concentrations: 2 µM and 20 µM. For concentration-gradient determination, each concentration is tested in triplicate. After co-incubation for 24 hours, the culture medium is discarded, and 20 µL of firefly luciferase reporter gene cell lysis buffer (RG126M, Beyotime) is added to each well. The 96-well plate is shaken on a microplate shaker for 10 minutes. After shaking, 10 µL of lysate is transferred into a white opaque plate, and then 10 µL of Steady-Lumi™ firefly luciferase assay reagent (RG058S, Beyotime) is added to each well. Finally, luminescence is measured using a microplate reader (Agilent Synergy Neo2). E20 represents the effect of the compound at a 20 µM concentration, and is calculated as: E20 = fluorescence value of the 20 µM well ÷ fluorescence value of the blank control × 100%. E2 represents the effect of the compound at a 2 µM concentration, and is calculated as: E2 = fluorescence value of the 2 µM well ÷ fluorescence value of the blank control × 100%. EC50 is the compound concentration at which the agonistic efficacy is increased by 50% relative to the blank control. The agonistic efficacy of a compound is determined by calculating the concentration (EC50) required to achieve a 50% increase in the fluorescence activity relative to the blank control and a maximum activation percentage (Emax). The maximum activation percentage (Emax) of an agonist refers to a ratio, expressed as a percentage, of the fluorescence value corresponding to the maximal effect (observed maximal response) induced when the agonist concentration reaches receptor-binding saturation in a particular receptor system, to the fluorescence value of the receptor system in the absence of agonist. In this experiment, Vyndaqel is directly used in place of tafamidis meglumine.

T1 sequence (Q99814 whole entry): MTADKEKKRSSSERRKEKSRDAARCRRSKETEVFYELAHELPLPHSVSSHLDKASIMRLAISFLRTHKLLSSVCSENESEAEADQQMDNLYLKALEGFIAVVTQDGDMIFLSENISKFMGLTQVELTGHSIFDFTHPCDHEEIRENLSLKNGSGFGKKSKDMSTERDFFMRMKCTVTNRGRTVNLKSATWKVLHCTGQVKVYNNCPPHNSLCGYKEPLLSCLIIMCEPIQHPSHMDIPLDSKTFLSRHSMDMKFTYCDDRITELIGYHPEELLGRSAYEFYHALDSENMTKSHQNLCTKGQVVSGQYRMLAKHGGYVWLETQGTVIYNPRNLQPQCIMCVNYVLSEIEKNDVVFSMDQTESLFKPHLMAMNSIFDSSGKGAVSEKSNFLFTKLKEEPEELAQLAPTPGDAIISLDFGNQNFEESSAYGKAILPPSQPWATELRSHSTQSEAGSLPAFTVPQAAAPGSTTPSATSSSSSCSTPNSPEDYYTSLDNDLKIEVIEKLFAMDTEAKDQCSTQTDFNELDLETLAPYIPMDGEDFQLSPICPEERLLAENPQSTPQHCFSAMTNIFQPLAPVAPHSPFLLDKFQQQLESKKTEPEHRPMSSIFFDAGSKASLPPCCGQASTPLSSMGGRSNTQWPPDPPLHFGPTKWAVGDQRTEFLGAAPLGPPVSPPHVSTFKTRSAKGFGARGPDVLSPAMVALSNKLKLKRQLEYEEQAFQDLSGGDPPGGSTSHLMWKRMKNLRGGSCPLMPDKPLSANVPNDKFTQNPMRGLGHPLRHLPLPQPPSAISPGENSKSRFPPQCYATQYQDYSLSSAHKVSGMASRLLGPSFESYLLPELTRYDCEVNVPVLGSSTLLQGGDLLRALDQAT
T1 sequence (P27540 whole entry partner): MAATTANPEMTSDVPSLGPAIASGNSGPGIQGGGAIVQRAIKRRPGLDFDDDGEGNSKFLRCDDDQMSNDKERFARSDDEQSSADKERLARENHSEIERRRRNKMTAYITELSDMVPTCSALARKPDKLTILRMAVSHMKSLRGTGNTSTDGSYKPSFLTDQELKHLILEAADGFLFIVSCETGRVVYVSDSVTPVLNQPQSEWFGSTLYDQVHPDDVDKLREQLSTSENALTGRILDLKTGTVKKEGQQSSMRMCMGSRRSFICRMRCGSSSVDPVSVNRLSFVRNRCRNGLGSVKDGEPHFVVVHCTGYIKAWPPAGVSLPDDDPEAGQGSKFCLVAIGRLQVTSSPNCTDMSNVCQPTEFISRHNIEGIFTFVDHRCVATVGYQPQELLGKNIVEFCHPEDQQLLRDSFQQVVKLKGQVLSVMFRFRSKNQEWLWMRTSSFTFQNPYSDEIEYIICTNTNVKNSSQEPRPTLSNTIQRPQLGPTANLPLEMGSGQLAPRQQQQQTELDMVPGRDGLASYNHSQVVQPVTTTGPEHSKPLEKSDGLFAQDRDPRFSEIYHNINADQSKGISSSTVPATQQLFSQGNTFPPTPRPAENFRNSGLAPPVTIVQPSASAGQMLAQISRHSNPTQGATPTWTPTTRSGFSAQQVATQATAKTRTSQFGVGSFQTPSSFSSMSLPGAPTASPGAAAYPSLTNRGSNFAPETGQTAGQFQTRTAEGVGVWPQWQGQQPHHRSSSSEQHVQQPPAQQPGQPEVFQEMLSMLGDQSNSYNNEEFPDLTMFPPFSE

SMILES: O=C(O)c1ccc2nc(-c3cc(Cl)cc(Cl)c3)oc2c1 [tafamidis meglumine, 1-deoxy-1-(methylamino)-D-glucitol salt of 2-(3,5-dichlorophenyl)-1,3-benzoxazole-6-carboxylic acid]
- agonistic efficacy at a 2 µM concentration (E2) (2 µM, 24 hours co-incubation, fluorescence value as % of blank control (DMSO)): 122%
- agonistic efficacy at a 20 µM concentration (E20) (20 µM, 24 hours co-incubation, fluorescence value as % of blank control (DMSO)): 223%
- EC50 (EC50, concentration required for a 50% increase in fluorescence activity relative to the blank control, 24 hours): 970 nM
- Emax (maximum activation percentage) (maximal response as % of fluorescence without agonist): 228%
